Experimental data taken from patent US20020049173A1, “Alteration of cellular behavior by antisense modulation of mRNA processing” (priority 1999, published 2002).
pIC50: −log10 of the molar value. In the oligonucleotide strings, read from the 5' end, every base follows the letter of its sugar. An asterisk marks phosphorothioate; unmarked linkages are phosphodiester. Other units and linkages are bracketed, terminal groups are in braces. A string of capitals states the bases alone. e = 2'-O-(2-methoxyethyl) (MOE); [5mC] = 5-methylcytosine; d = 2'-deoxy (DNA)

Tests used:
Human IL-5 receptorα = Human IL-5 receptorα protein expression on the cell surface (36 hr), TF-1 cells; format: cell-based; design: % INHIB, human IL-5 receptorα protein on the cell surface / % of CONTROL, human IL-5 receptorα protein on the cell surface: concentration or dose not given beside the values; conditions: for % INHIB, human IL-5 receptorα protein on the cell surface / % of CONTROL, human IL-5 receptorα protein on the cell surface: 36 hr
Description: (§1) A series of oligonucleotides were designed to target various splice sites or (intron-exon boundaries) in the IL-5 receptor mRNA.
ISIS 16746, 16748, 16755 and 16758 inhibited human IL-5 receptorα protein by over 50% in this assay and are therefore preferred. ISIS 16758 and 16755 were chosen for further study.

[1] = system: Human IL-5 receptorα membrane form mRNA; assay: Human IL-5 receptorα membrane form mRNA expression (18 hr); format: cell-based; design: % INHIB'N, human IL-5 receptorα membrane form mRNA / % of CONTROL, human IL-5 receptorα membrane form mRNA: concentration or dose not given beside the values; conditions: 18 hr
Description: mRNA transcripts encoding the membrane form of the human IL-5 receptorα contain exons 1-10 and 12-14. Exon 11 is spliced out. It is, therefore, possible to target sequences in exons 1-10 which are common to both soluble and membrane forms of the receptor, or to selectively target sequences only present in the membrane form (exons 12-14). Oligonucleotides were also designed to target various intron/exon boundaries downstream of exon 11, with the intention of preventing successful splicing out of exon 11 and thus redirecting splice products away from the membrane form and in favor of the soluble form of IL-5 receptorα.
as §1

[2] = system: murine IL-5 receptor α mRNA, soluble form; assay: Soluble IL-5 receptor α mRNA by Northern blot in BCL1 cells; format: cell-based, mouse; conditions: BCL1 cells, 10 μM, Northern blot, compared to untreated control; 2′-MOE gapmers
Description: (§2) Murine BCL1 cells were chosen for screening antisense oligonucleotides targeted to murine IL-5 receptor α. These are B-cell leukemia cells derived from a spontaneously arising tumor of BALB/c origin, and proliferate in response to murine or human IL-5. This is a CD5+line which resembles a subset of human chronic lymphocytic leukemia tumors and secretes IgM upon lipopolysaccharide stimulation. Cells were obtained from the American Type Culture Collection and cultured in RPMI 1640 medium supplemented with 10% heat-inactivated fetal bovine serum (Sigma Chemical Co., St. Louis, Mo.), 10 mM Hepes, pH 7.2, 50 μM 2-ME, 2 mM L-glutamine, 100 U/ml penicillin and 100 μg/ml streptomycin (Gibco, Grand Island, N.Y.).
(§3) The effect of these compounds on both membrane and soluble forms of murine IL-5 receptor α were measured and are shown in Table 1B. Oligonucleotides were screened in BCL1 cells at a dose of 10 μM and IL-5 receptor α mRNA was measured by Northern blot. Percent inhibition is compared to untreated (no oligo) control.
(§4) Total BCL1 cellular RNA was isolated using the RNeasy™ kit (Qiagen, Santa Clara Calif.) . Northern blotting was performed using standard methods. The cDNA probes were generated from oligonucleotides matching the exon sequences of either exons 2, 8, 9 or 10. Signals were quantitated using a Molecular Dynamics PhosphorImager.

[3] = system: murine IL-5 receptor α mRNA, membrane form; assay: Membrane IL-5 receptor α mRNA by Northern blot in BCL1 cells; format: cell-based, mouse; conditions: BCL1 cells, 10 μM, Northern blot, compared to untreated control; 2′-MOE gapmers
Description: as §2, §3, §4

Substance: 16746 (antisense eA*e[5mC]*e[5mC]*e[5mC]*eA*eG*e[5mC]*eT*eT*eT*e[5mC]*eT*eG*e[5mC]*eA*eA*eA*eA*e[5mC]*eA) [compound 16746]
- % INHIB, human IL-5 receptorα protein on the cell surface (Human IL-5 receptorα): 65%
- % of CONTROL, human IL-5 receptorα protein on the cell surface (Human IL-5 receptorα): 35%
- % INHIB'N, human IL-5 receptorα membrane form mRNA [1]: 64%
- % of CONTROL, human IL-5 receptorα membrane form mRNA [1]: 36%

Substance: 16747 (antisense ACCCAGCTTTCTGCAAAACA; listed as DNA, chemistry not fully specified) [compound 16747]
- % INHIB, human IL-5 receptorα protein on the cell surface (Human IL-5 receptorα): 19.5%
- % of CONTROL, human IL-5 receptorα protein on the cell surface (Human IL-5 receptorα): 80.5%
- % INHIB'N, human IL-5 receptorα membrane form mRNA [1]: 34%
- % of CONTROL, human IL-5 receptorα membrane form mRNA [1]: 66%

Substance: 16748 (antisense ACCCAGCTTTCTGCAAAACA; listed as DNA, chemistry not fully specified) [compound 16748]
- % INHIB, human IL-5 receptorα protein on the cell surface (Human IL-5 receptorα): 59.5%
- % of CONTROL, human IL-5 receptorα protein on the cell surface (Human IL-5 receptorα): 40.5%
- % INHIB'N, human IL-5 receptorα membrane form mRNA [1]: 75%
- % of CONTROL, human IL-5 receptorα membrane form mRNA [1]: 25%

Substance: 16749 (antisense eT*e[5mC]*eA*eA*e[5mC]*eA*eT*eT*eA*e[5mC]*e[5mC]*eT*e[5mC]*eA*eT*eA*eG*eT*eT*eA) [compound 16749]
- % INHIB, human IL-5 receptorα protein on the cell surface (Human IL-5 receptorα): 25%
- % of CONTROL, human IL-5 receptorα protein on the cell surface (Human IL-5 receptorα): 75%
- % of CONTROL, human IL-5 receptorα membrane form mRNA [1]: 101%

Substance: 16750 (antisense dT*dC*dA*dA*dC*dA*dT*dT*dA*dC*e[5mC]*eT*e[5mC]*eA*eT*eA*eG*eT*eT*eA) [compound 16750]
- % INHIB, human IL-5 receptorα protein on the cell surface (Human IL-5 receptorα): 9%
- % of CONTROL, human IL-5 receptorα protein on the cell surface (Human IL-5 receptorα): 91%
- % INHIB'N, human IL-5 receptorα membrane form mRNA [1]: 4%
- % of CONTROL, human IL-5 receptorα membrane form mRNA [1]: 96%

Substance: 16751 (antisense eT*e[5mC]*eA*eA*e[5mC]*dA*dT*dT*dA*dC*dC*dT*dC*dA*dT*eA*eG*eT*eT*eA) [compound 16751]
- % of CONTROL, human IL-5 receptorα protein on the cell surface (Human IL-5 receptorα): 101%
- % INHIB'N, human IL-5 receptorα membrane form mRNA [1]: 4%
- % of CONTROL, human IL-5 receptorα membrane form mRNA [1]: 96%

Substance: 16752 (antisense eT*eA*eA*eA*eT*eG*eA*e[5mC]*eA*eT*e[5mC]*eT*eG*eA*eA*eA*eA*e[5mC]*eA*eG) [compound 16752]
- % of CONTROL, human IL-5 receptorα protein on the cell surface (Human IL-5 receptorα): 100.5%
- % of CONTROL, human IL-5 receptorα membrane form mRNA [1]: 101%

Substance: 16753 (antisense dT*dA*dA*dA*dT*dG*dA*dC*dA*dT*e[5mC]*eT*eG*eA*eA*eA*eA*e[5mC]*eA*eG) [compound 16753]
- % INHIB, human IL-5 receptorα protein on the cell surface (Human IL-5 receptorα): 4%
- % of CONTROL, human IL-5 receptorα protein on the cell surface (Human IL-5 receptorα): 96%
- % INHIB'N, human IL-5 receptorα membrane form mRNA [1]: 2%
- % of CONTROL, human IL-5 receptorα membrane form mRNA [1]: 98%

Substance: 16754 (antisense eT*eA*eA*eA*eT*dG*dA*dC*dA*dT*dC*dT*dG*dA*dA*eA*eA*e[5mC]*eA*eG) [compound 16754]
- % of CONTROL, human IL-5 receptorα protein on the cell surface (Human IL-5 receptorα): 100.5%
- % of CONTROL, human IL-5 receptorα membrane form mRNA [1]: 101%

Substance: 16755 (antisense eG*eA*eA*e[5mC]*eA*e[5mC]*eT*eT*eA*e[5mC]*eA*eT*eT*eT*eT*eA*e[5mC]*eA*eG*eA) [compound 16755]
- % INHIB, human IL-5 receptorα protein on the cell surface (Human IL-5 receptorα): 89.5%
- % of CONTROL, human IL-5 receptorα protein on the cell surface (Human IL-5 receptorα): 10.5%
- % INHIB'N, human IL-5 receptorα membrane form mRNA [1]: 84%
- % of CONTROL, human IL-5 receptorα membrane form mRNA [1]: 15.5%

Substance: 16756 (antisense dG*dA*dA*dC*dA*dC*dT*dT*dA*dC*eA*eT*eT*eT*eT*eA*e[5mC]*eA*eG*eA) [compound 16756]
- % of CONTROL, human IL-5 receptorα protein on the cell surface (Human IL-5 receptorα): 101%
- % INHIB'N, human IL-5 receptorα membrane form mRNA [1]: 4%
- % of CONTROL, human IL-5 receptorα membrane form mRNA [1]: 96%

Substance: 16757 (antisense eG*eA*eA*e[5mC]*eA*dC*dT*dT*dA*dC*dA*dT*dT*dT*dT*eA*e[5mC]*eA*eG*eA) [compound 16757]
- % INHIB, human IL-5 receptorα protein on the cell surface (Human IL-5 receptorα): 19%
- % of CONTROL, human IL-5 receptorα protein on the cell surface (Human IL-5 receptorα): 81%
- % INHIB'N, human IL-5 receptorα membrane form mRNA [1]: 9%
- % of CONTROL, human IL-5 receptorα membrane form mRNA [1]: 91%

Substance: 16759 (antisense dT*dC*dA*dT*dC*dA*dT*dT*dT*dC*e[5mC]*eT*eG*eG*eT*eG*eG*eA*eA*eA) [compound 16759]
- % INHIB, human IL-5 receptorα protein on the cell surface (Human IL-5 receptorα): 24.5%
- % of CONTROL, human IL-5 receptorα protein on the cell surface (Human IL-5 receptorα): 75.5%
- % INHIB'N, human IL-5 receptorα membrane form mRNA [1]: 19%
- % of CONTROL, human IL-5 receptorα membrane form mRNA [1]: 81%

Substance: 16760 (antisense eT*e[5mC]*eA*eT*e[5mC]*dA*dT*dT*dT*dC*dC*dT*dG*dG*dT*eG*eG*eA*eA*eA) [compound 16760]
- % INHIB, human IL-5 receptorα protein on the cell surface (Human IL-5 receptorα): 29%
- % of CONTROL, human IL-5 receptorα protein on the cell surface (Human IL-5 receptorα): 71%
- % INHIB'N, human IL-5 receptorα membrane form mRNA [1]: 24%
- % of CONTROL, human IL-5 receptorα membrane form mRNA [1]: 76%

Substance: 18001 (CAAGGACTTCCTTTCCTTTC; antisense; listed as DNA, chemistry not fully specified) [compound 18001]
- % inhibition of soluble IL-5 Rα [2]: 39%
- % inhibition of membrane IL-5 Rα [3]: 35%

Substance: 18002 (GCCATTCTACCAAGGACTTC; listed as DNA, chemistry not fully specified) [compound 18002]
- % inhibition of soluble IL-5 Rα [2]: 8%
- % inhibition of membrane IL-5 Rα [3]: 5%

Substance: 18003 (ACAATGAGATGCCATTCTAC; antisense; listed as DNA, chemistry not fully specified) [compound 18003]
- % inhibition of soluble IL-5 Rα [2]: 20%
- % inhibition of membrane IL-5 Rα [3]: 15%

Substance: ISIS 16746: ACCCAGCTTTCTGCAAAACA, SEQ ID 31; human IL-5R I13/E14; 2′-MOE pattern (bold) not visible (antisense eA*e[5mC]*e[5mC]*e[5mC]*eA*eG*e[5mC]*eT*eT*eT*e[5mC]*eT*eG*e[5mC]*eA*eA*eA*eA*e[5mC]*eA)
- % INHIB, human IL-5 receptorα protein on the cell surface (Human IL-5 receptorα): over 50%
- % INHIB'N, human IL-5 receptorα membrane form mRNA [1]: over 50%

Substance: ISIS 16748: ACCCAGCTTTCTGCAAAACA, SEQ ID 31; human IL-5R I13/E14; 2′-MOE pattern not visible (antisense eA*e[5mC]*e[5mC]*e[5mC]*eA*dG*dC*dT*dT*dT*dC*dT*dG*dC*dA*eA*eA*eA*e[5mC]*eA)
- % INHIB, human IL-5 receptorα protein on the cell surface (Human IL-5 receptorα): over 50%
- % INHIB'N, human IL-5 receptorα membrane form mRNA [1]: over 50%

Substance: ISIS 18002: GCCATTCTACCAAGGACTTC, SEQ ID 2; 2′-MOE gapmer, mouse IL-5R exon 9 (listed as DNA, chemistry not fully specified)
- % inhibition of membrane IL-5 Rα [3]: inhibitor of both forms of IL-5 receptorα

Substance: ISIS 18009: TCATCATTTACTGGTGGAAA, SEQ ID 36; mismatch of 16758 (antisense eT*e[5mC]*eA*eT*e[5mC]*eA*eT*eT*eT*eA*e[5mC]*eT*eG*eG*eT*eG*eG*eA*eA*eA) [reference compound]
- pIC50 (Human IL-5 receptorα; TF-1 cells, read-out: IC50 for reduction of IL-5 receptorα cell surface protein): 5.00

Substance: ISIS 18010: TCAGCATTTACTGGTGTAAA, SEQ ID 37; mismatch of 16758 (antisense eT*e[5mC]*eA*eG*e[5mC]*eA*eT*eT*eT*eA*e[5mC]*eT*eG*eG*eT*eG*eT*eA*eA*eA) [reference compound]
- inhibition of IL-5 receptorα expression (mismatch controls) (Human IL-5 receptorα; TF-1 cells): did not inhibit

Substance: ISIS 18011: TCAGCAGTTACTTGTGTAAA, SEQ ID 38; 5-mismatch for 16758 (antisense eT*e[5mC]*eA*eG*e[5mC]*eA*eG*eT*eT*eA*e[5mC]*eT*eT*eG*eT*eG*eT*eA*eA*eA) [reference compound]
- inhibition of IL-5 receptorα expression (mismatch controls) (Human IL-5 receptorα; TF-1 cells): did not inhibit
